# Source: PMC3156712 (2011)
# Columns and labels:
# [1] = test system: tRNA^phe (RNA, tRNA) GCGGAUUUAGCUCAGUUGGGAGAGCGCCAGACUGAAGAUCUGGAGGUCCUGUGUUCGAUCCACAGAAUUCGCACCA; assay: absorption titration, Scatchard, McGhee-von Hippel; conditions: 20 mM Na+, citrate-phosphate buffer pH 7.0, 20°C, per nucleotide phosphate, per base
# [2] = test system: tRNA^phe (RNA, tRNA) GCGGAUUUAGCUCAGUUGGGAGAGCGCCAGACUGAAGAUCUGGAGGUCCUGUGUUCGAUCCACAGAAUUCGCACCA; assay: ITC, single site model; conditions: 20 mM Na+, citrate-phosphate buffer pH 7.0, 20°C, per nucleotide phosphate, per base
# [3] = test system: tRNA^phe (RNA, tRNA) GCGGAUUUAGCUCAGUUGGGAGAGCGCCAGACUGAAGAUCUGGAGGUCCUGUGUUCGAUCCACAGAAUUCGCACCA; assay: DSC and optical melting; conditions: Na+, citrate-phosphate buffer pH 7.0, third transition (61°C), first unaffected, compound concentration not stated, per base
# [4] = test system: tRNA^phe (RNA, tRNA) GCGGAUUUAGCUCAGUUGGGAGAGCGCCAGACUGAAGAUCUGGAGGUCCUGUGUUCGAUCCACAGAAUUCGCACCA; assay: fluorescence titration, Scatchard, McGhee-von Hippel; conditions: 20 mM Na+, citrate-phosphate buffer pH 7.0, 20°C, per nucleotide phosphate, per base
K′ ([1]; 240 mM DMSO),K ([2]; 240 mM DMSO),dTm ([3]; second transition about 2°C) [°C],K′ ([4]; 240 mM DMSO),K′ [1],K [2],dTm ([3]; second transition about 4°C) [°C],K′ [4],Compound
4.33 ± 0.20 × 10^4 M^-1,6.5 ± 0.3 × 10^4 M^-1,7,6.38 ± 0.20 × 10^4 M^-1,–,–,–,–,COc1cccc2c1cc1c3c(cc4c(c32)OCO4)C(=O)N1[C@@H]1O[C@H](CO)[C@@H](O)[C@H](O)[C@H]1O
–,–,–,–,21.20 ± 0.30 × 10^4 M^-1,22.2 ± 0.1 × 10^4 M^-1,12.5,18.58 ± 0.32 × 10^4 M^-1,COc1cccc2c1C(=O)c1c(O)c3c(c(O)c1C2=O)C[C@@](O)(C(C)=O)C[C@@H]3O[C@H]1C[C@H](N)[C@H](O)[C@H](C)O1
